This is an account of results in US20210024490A1, “METHOD FOR THE PREPARATION OF THE METABOLITES OF (4S)- AND (4R)-4-(4-CYANO-2-METHOXYPHENYL)-5-ETHOXY-2,8-DIMETHYL-1,4-DIHYDRO-1,6-NAPHTHYRIDINE-3-CARBOXAMIDE AND THE USE THEREOF” (Bayer Pharma Aktiengesellschaft, priority 2015, published 2021).

One may read the IC50 as the point on the concentration scale where inhibition reaches its midpoint. Low values mean greater potency, high ones weaker potency.

Series [1] deals with T1, human mineralocorticoid receptor (MR) (Homo sapiens, UniProt P08235).
T1 construct: expressed in transfected cells; host or cells: CHO K1 (Chinese hamster ovary), stably transfected
T1 sequence (P08235 734-984 limits assumed): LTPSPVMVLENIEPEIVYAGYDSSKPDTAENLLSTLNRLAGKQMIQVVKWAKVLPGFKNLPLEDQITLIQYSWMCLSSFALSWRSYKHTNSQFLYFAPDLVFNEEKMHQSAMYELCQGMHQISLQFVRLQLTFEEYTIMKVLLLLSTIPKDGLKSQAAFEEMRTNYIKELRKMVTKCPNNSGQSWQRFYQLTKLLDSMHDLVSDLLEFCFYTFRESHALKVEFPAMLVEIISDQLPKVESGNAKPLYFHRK
As to the kind of experiment: Cellular in vitro assay to determine the inhibitory MR activity (GAL4-steroid hormone receptor chimera, luciferase reporter, CHO K1 cells). Type of series: cell-based. The following applies: antagonism of aldosterone-stimulated GAL4-MR chimera. The text has this: B-1. Cellular In Vitro Assay to Determine the Inhibitory MR Activity and MR Selectivity Compared with Other Steroid Hormone Receptors
Antagonists of the human mineralocorticoid receptor (MR) are identified, and the efficacy of the compounds described herein is quantified with the aid of a recombinant cell line. The cell is originally derived from a hamster ovary epithelial cell (Chinese Hamster Ovary, CHO K1, ATCC: American Type Culture Collection, VA 20108, USA).
An established chimera system in which the ligand-binding domains of human steroid hormone receptors are fused to the DNA-binding domain of the yeast transcription factor GAL4 is used in this CHO K1 cell line. The GAL4-steroid hormone receptor chimeras produced in this way are cotransfected and stably expressed with a reporter construct in the CHO cells.
To generate the GAL4-steroid hormone receptor chimeras, the GAL4 DNA-binding domain (amino acids 1-147) from the vector pFC2dbd (from Stratagene) is cloned with the PCR-amplified ligand-binding domains of the mineralocorticoid receptor (MR, amino acids 734-985), of the glucocorticoid receptor (GR, amino acids 443-777), of the progesterone receptor (PR, amino acids 680-933) and of the androgen receptor (AR, amino acids 667-919) into the vector pIRES2 (from Clontech). […]
The MR cells are plated out in medium (Optimem, 2.5% FCS, 2 mM glutamine, 10 mM HEPES) in 96-well (or 384- or 1536-well) microliter plates the day before the assay, and are kept in a cell incubator (96% air humidity, 5% v/v CO2, 37° C.). […] After a further incubation time of 5 to 6 hours, the luciferase activity is measured with the aid of a video camera. The relative light units measured give a sigmoidal stimulation curve as a function of the substance concentration. The IC50 values (in mol) are calculated with the aid of the computer program GraphPad PRISM (Version 3.02).
On the technique in general: In a reporter assay the amount or activity of a reporter protein is the signal.

Details of series [2]: species or system humans. The following applies: dog, rat, mouse, human, in vivo. The text has this:
For pharmacokinetic measurements, standards of very high quality had to be prepared in order to be able to carry out reliable quantification. From the structural elucidation of the metabolites (via MS of the serum of various animal species and humans) obtained after administration of (4 S)-4-(4-cyano-2-methoxyphenyl)-5-ethoxy-2,8-dimethyl-1,4-dihydro-1,6-naphthyridine-3-carboxamide of the formula 4S (I), the following 6 main metabolites were found (the absolute stereochemistry of the atropisomers can be assigned according to the Cahn-Ingold-Prelog convention and is specified in parentheses):
If the R enantiomer 4R (I) is used, […]

In series [1], `CCOc1ncc(C)c2nc(C)c(C(N)=O)c(-c3ccc(C#N)cc3OC)c12` (single isomer, unassigned) [M1b (R)] returned an IC50 of over 10 µM.

With `CCOc1ncc(C)c2c1[C@H](c1ccc(C#N)cc1OC)C(C(N)=O)=C(C)N2` [Compound of the formula (I), (4S)-4-(4-cyano-2-methoxyphenyl)-5-ethoxy-2,8-dimethyl-1,4-dihydro-1,6-naphthyridine-3-carboxamide], the IC50 in series [1] was determined as 0.0277 µM. Moreover, in series [2], the main metabolites formed entry was “metabolized mainly to M1a (S) and the subsequent metabolites M2a (S) and M3a (S)”.

`CCOc1ncc(C)c2nc(C)c(C(N)=O)c(-c3ccc(C#N)cc3OC)c12` (single isomer, unassigned) [M1a (S)] had an IC50 in series [1] of 9.33 µM.

With `CCOc1ncc(C)c2c1[C@@H](c1ccc(C#N)cc1OC)C(C(N)=O)=C(C)N2` [4R (I), (4R)-4-(4-cyano-2-methoxyphenyl)-5-ethoxy-2,8-dimethyl-1,4-dihydro-1,6-naphthyridine-3-carboxamide], the main metabolites formed result in series [2] is “the metabolites of the b series are principally formed, i.e. M1b (R), M2b (R) and M3b (R)”.
